Results on 15 compounds are retold here after paper PMC3431135, “Pharmacological Evaluation and Docking Studies of 3-Thiadiazolyl- and Thioxo-1,2,4-triazolylcoumarin Derivatives as Cholinesterase Inhibitors” (ISRN Pharmacology, 2012).

Read-outs that look alike come from different tables or passages of the source.

Assay [1] deals with T1, AChE from electrophorus electricus (EeAChE) (Electrophorus electricus, UniProt O42275).
T1 construct: Acetylcholinesterase (AChE) (EC 3.1.1.7, type VI-S from Electric Eel); purchased Sigma-Aldrich (Steinheim, Germany) type VI-S; host or cells: electric eel (natural source)
T1 sequence (O42275 24-633): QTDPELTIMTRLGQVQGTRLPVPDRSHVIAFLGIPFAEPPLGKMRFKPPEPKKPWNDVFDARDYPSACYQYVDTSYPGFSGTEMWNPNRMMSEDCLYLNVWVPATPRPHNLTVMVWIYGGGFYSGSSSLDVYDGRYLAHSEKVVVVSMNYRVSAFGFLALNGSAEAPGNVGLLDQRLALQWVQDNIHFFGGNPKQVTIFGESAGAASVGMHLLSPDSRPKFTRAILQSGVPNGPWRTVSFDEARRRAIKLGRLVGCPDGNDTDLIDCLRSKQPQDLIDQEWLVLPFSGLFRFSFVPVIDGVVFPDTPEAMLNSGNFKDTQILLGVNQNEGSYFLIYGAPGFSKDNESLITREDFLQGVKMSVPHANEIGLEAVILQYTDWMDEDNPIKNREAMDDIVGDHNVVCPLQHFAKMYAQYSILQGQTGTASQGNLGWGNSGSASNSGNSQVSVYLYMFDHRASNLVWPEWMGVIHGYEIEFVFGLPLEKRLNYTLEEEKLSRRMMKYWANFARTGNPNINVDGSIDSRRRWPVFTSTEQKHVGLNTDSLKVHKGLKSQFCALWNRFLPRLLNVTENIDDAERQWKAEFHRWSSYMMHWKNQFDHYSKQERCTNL
Put plainly: biochemical. How it is done: (§1) Acetylcholinesterase (AChE) (EC 3.1.1.7, type VI-S from Electric Eel), butyrylcholinesterase (BChE) (EC 3.1.1.8, from horse serum). AChE and BChE were also isolated from rabbit brain and serum, respectively.
(§2) The inhibitory activities of coumarin derivatives were measured quantitatively by Ellman's method and performed with some modifications as in Ingkaninan et al. method by using 96-microliter well plate. Series of newly synthesized coumarin derivatives were tested as AChE and BChE inhibitors. Initially, each compound was dissolved in DMSO (end concentration of DMSO was less than 1% in assay) and tested at a final concentration of 1 mM or 10 μL of DMSO (as negative control) in wells for initial screening. […] Reaction mixture comprised of 50 μL of 3 mM DTNB (5,5′-dithiobis(2-nitrobenzoic acid)) in assay buffer, 10 μL of test compound, and 10 μL of AChE (0.031 IU/mL) or BChE (0.5 IU/mL). This mixture was preincubated at 25°C for 10 min. After preincubation, enzymatic reaction was started by addition of 10 μL of 10 mM MBTCCl (butyrylthiocholine chloride) or ATCI (acetylthiocholine iodide) according to the respective enzyme and mixture was incubated again for 15 min. […] Enzyme dilution buffer consisted of 50 mM Tris-HCl containing 0.1% (w/v) BSA (pH 8). The effect of DMSO on activity of enzyme was subtracted by a negative control containing DMSO, instead of inhibitor. Each concentration was analyzed in triplicate and Ki values were calculated from IC50 values by using a nonlinear curve fitting program PRISM 5.0 (GraphPad, San Diego, California, USA).

Assay [2] has as its target T2, BChE from rabbit serum (rBChE) (Oryctolagus cuniculus, UniProt P21927).
T2 construct: BChE was obtained from rabbit blood serum by applying the techniques of centrifugation; from tissue; host or cells: rabbit blood serum
Put plainly: biochemical. On the procedure:
as §1
(§3) AChE was isolated from rabbit brain. Heads were decapitated and brains were thawed and homogenized for 30 sec in 2.5 volumes of 1 mM EDTA, 0.32 M ice cold sucrose, 10 μM tetracain (pH7.0). The homogenates were centrifuged at 105,000 ×g for 60 min (4°C). The supernatants were removed and pellets were again homogenized in same volume of 0.2% triton phosphate buffer. After centrifugation, the supernatants were again removed and pellets were rehomogenized for 10 sec in 2.5 volumes of 1% triton phosphate buffer. […] BChE was obtained from rabbit blood serum by applying the techniques of centrifugation. The purified enzymes were stored at –80°C.
as §2

Assay [3] addresses T3, rabbit AChE (rAChE), isolated from rabbit brain (Oryctolagus cuniculus, UniProt Q29499).
T3 construct: AChE was isolated from rabbit brain; from tissue; host or cells: rabbit brain
Nature of the assay: biochemical. On the procedure:
as §1, §3, §2

In assay [4] the target is T4, BChE from horse serum (hBChE) (Equus caballus, UniProt P81908).
T4 construct: butyrylcholinesterase (BChE) (EC 3.1.1.8, from horse serum); purchased Sigma-Aldrich (Steinheim, Germany); host or cells: horse serum (natural source)
T4 sequence (P81908 whole entry): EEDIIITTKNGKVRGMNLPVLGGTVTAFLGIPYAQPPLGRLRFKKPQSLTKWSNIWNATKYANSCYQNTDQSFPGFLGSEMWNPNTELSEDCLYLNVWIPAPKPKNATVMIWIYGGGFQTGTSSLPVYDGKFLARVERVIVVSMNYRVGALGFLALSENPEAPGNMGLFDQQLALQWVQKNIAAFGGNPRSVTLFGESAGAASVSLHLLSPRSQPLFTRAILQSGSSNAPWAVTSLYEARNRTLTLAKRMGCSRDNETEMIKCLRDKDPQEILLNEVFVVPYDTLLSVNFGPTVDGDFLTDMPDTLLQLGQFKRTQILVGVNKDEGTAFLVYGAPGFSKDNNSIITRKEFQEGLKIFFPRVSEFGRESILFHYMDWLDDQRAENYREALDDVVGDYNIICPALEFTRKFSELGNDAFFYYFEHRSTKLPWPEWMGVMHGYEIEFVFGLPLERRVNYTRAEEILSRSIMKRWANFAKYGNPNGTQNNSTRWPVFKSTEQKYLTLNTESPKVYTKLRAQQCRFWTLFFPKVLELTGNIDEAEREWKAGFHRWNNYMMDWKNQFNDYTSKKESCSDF
Put plainly: biochemical. It is filed as biochemical. On the procedure:
as §1, §2

In the next assay the test system is AChE. Put plainly: Kinetic characterization of AChE inhibition (Lineweaver-Burk). The settings on record: Lineweaver-Burk plots; inhibitor 0–100 nM; substrate ATCI. Format: biochemical. How it is done: (§4) […]. […] As Km value was increasing and value of Vmax remained almost same in the presence or absence of inhibitor, indication of competitive type of inhibitory mechanism against AChE and BChE.
(§5) Kinetic characterization of AChE and BChE was performed by using Ellman's method. […]. Enzyme kinetic characterization studies were performed under same incubation conditions as described above by using ATCI and BTCCl as substrates and DTNB was used as chromophoric reagent. A parallel control with no inhibitor in the mixture was added for comparison. Each concentration was analyzed in triplicate; and Lineweaver-Burk (1/V versus 1/[S]) plot was constructed using Prism software.

A further assay relates to BChE. Nature of the assay: Kinetic characterization of BChE inhibition (Lineweaver-Burk). It is filed as biochemical. The settings on record: Lineweaver-Burk plots; inhibitor 0–5 nM; substrate BTCCl. On the procedure:
as §4, §5

Where [5] appears, read: mean ± SEM of three experiments, Ki calculated from IC50, substrate ATCI, read-out: EeAChE Ki ± SEM.
The mark [6] stands for this setting: rabbit serum BChE, mean ± SEM of three experiments, Ki calculated from IC50, substrate BTCCl, read-out: rBChE Ki ± SEM.
[7] abbreviates: mean ± SEM of three experiments, Ki calculated from IC50, substrate ATCI, read-out: rAChE Ki ± SEM.
The mark [8] stands for this setting: horse serum BChE, mean ± SEM of three experiments, Ki calculated from IC50, substrate BTCCl, read-out: hBChE Ki ± SEM.

T3 sequence (Q29499 2-584): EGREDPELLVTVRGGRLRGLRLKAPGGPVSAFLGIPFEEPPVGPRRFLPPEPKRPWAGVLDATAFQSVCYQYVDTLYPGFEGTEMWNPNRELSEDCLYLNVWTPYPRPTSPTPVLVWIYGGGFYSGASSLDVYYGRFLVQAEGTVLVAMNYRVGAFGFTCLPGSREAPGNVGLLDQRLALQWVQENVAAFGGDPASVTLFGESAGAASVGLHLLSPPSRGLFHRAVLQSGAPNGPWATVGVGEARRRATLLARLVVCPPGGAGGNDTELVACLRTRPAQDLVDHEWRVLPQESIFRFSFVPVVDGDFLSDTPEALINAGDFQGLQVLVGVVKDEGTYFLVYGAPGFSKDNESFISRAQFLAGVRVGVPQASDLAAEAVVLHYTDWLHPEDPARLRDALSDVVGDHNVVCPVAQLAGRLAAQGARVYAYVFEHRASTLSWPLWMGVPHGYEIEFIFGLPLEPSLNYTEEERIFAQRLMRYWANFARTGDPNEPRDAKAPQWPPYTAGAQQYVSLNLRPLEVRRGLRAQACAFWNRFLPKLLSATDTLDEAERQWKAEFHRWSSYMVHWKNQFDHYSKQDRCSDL
T2 sequence (P21927 9-581): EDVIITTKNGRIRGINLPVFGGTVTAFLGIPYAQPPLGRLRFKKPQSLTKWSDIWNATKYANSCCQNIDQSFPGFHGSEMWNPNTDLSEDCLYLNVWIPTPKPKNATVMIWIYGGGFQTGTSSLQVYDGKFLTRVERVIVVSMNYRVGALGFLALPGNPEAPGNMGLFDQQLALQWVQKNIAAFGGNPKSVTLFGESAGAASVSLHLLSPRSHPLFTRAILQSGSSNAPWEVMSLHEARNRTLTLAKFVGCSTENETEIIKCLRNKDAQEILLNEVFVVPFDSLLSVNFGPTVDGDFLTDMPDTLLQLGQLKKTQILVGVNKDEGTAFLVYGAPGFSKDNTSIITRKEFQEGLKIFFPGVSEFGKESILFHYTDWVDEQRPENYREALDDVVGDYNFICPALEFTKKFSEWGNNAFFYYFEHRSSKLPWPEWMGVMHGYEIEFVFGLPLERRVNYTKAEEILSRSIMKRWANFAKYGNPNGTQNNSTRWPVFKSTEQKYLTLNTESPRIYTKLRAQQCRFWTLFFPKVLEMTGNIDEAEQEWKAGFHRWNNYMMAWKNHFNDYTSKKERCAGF

On to `O=c1oc2ccccc2cc1-c1nnc(Nc2ccccc2Cl)s1` [Compound 4a, 3-(5-(2-Chlorophenylamino)-1,3,4-thiadiazol-2-yl)-2H-chromen-2-one], for which the Ki (usually a measure of affinity in units of concentration, obtained from inhibition or displacement) in assay [1] (setting [5]) was 5750 ± 780 nM; in assay [2] (setting [6]) it was 1390 ± 20 nM; in assay [3] (setting [7]), 31 ± 8 nM; in assay [4] (setting [8]), 100 ± 10 nM.

`COc1cccc(Nc2nnc(-c3cc4ccccc4oc3=O)s2)c1` [Compound 4g, 3-(5-(3-Methoxyphenylamino)-1,3,4-thiadiazol-2-yl)-2H-chromen-2-one]: the Ki was 8260 ± 10 nM in assay [1] (setting [5]), 1520 ± 30 nM in assay [2] (setting [6]), 21 ± 1 nM in assay [3] (setting [7]) and 340 ± 10 nM in assay [4] (setting [8]).

Consider `O=c1oc2ccccc2cc1-c1n[nH]c(=S)n1-c1ccccc1Cl` [Compound 3a, 3-(4-(2-Chlorophenyl)-5-thioxo-4,5-dihydro-1H-1,2,4-triazol-3-yl)-2H-chromen-2-one], for which the Ki in assay [1] (setting [5]) was 2420 ± 430 nM; in assay [2] (setting [6]), 21400 ± 1600 nM; in assay [3] (setting [7]) it was 470 ± 70 nM; in assay [4] (setting [8]), 190 ± 10 nM.

`Cc1ccc(Nc2nnc(-c3cc4ccccc4oc3=O)s2)cc1` [Compound 4e, 3-(5-(p-Toluidino)-1,3,4-thiadiazol-2-yl)-2H-chromen-2-one]: the Ki was 6190 ± 290 nM in assay [1] (setting [5]), 460 ± 10 nM in assay [2] (setting [6]), 561 ± 22 nM in assay [3] (setting [7]) and 280 ± 20 nM in assay [4] (setting [8]).

For the compound `COc1ccccc1Nc1nnc(-c2cc3ccccc3oc2=O)s1` [Compound 4f, 3-(5-(2-Methoxyphenylamino)-1,3,4-thiadiazol-2-yl)-2H-chromen-2-one], the Ki in assay [1] (setting [5]) was 7160 ± 10 nM; in assay [2] (setting [6]) it was 1360 ± 30 nM; in assay [3] (setting [7]), 81 ± 1 nM; in assay [4] (setting [8]), 230 ± 10 nM.

Take `COc1ccccc1-n1c(-c2cc3ccccc3oc2=O)n[nH]c1=S` [Compound 3f, 3-(4-(2-Methoxyphenyl)-5-thioxo-4,5-dihydro-1H-1,2,4-triazol-3-yl)-2H-chromen-2-one]: the Ki in assay [1] (setting [5]) is 4060 ± 340 nM; in assay [2] (setting [6]), 690 ± 20 nM; in assay [3] (setting [7]), 61 ± 5 nM; in assay [4] (setting [8]), 280 ± 10 nM.

Take `O=c1oc2ccccc2cc1-c1nnc(Nc2cccc(Cl)c2)s1` [Compound 4b, 3-(5-(3-Chlorophenylamino)-1,3,4-thiadiazol-2-yl)-2H-chromen-2-one]: the Ki in assay [1] (setting [5]) was 280 ± 70 nM; in assay [2] (setting [6]) it was 2260 ± 20 nM; in assay [3] (setting [7]), 28 ± 2 nM; in assay [4] (setting [8]), 540 ± 90 nM. Besides, the “Type of inhibition of AChE” value with AChE is on record as “competitive inhibitor”. Further, the “Type of inhibition of BChE” value in the assay with BChE was “competitive inhibitor”.

In the case of `O=c1oc2ccccc2cc1-c1n[nH]c(=S)n1-c1ccc(Cl)cc1` [Compound 3c, 3-(4-(4-Chlorophenyl)-5-thioxo-4,5-dihydro-1H-1,2,4-triazol-3-yl)-2H-chromen-2-one], the Ki is 450 ± 90 nM in assay [1] (setting [5]), 520 ± 30 nM in assay [2] (setting [6]), 13 ± 2 nM in assay [3] (setting [7]) and 1340 ± 20 nM in assay [4] (setting [8]).

As to `COc1cccc(-n2c(-c3cc4ccccc4oc3=O)n[nH]c2=S)c1` [Compound 3g, 3-(4-(3-Methoxyphenyl)-5-thioxo-4,5-dihydro-1H-1,2,4-triazol-3-yl)-2H-chromen-2-one], the Ki in assay [1] (setting [5]) was 980 ± 340 nM; in assay [2] (setting [6]) it was 22100 ± 200 nM; in assay [3] (setting [7]) it was 46 ± 2 nM; in assay [4] (setting [8]) it was 7550 ± 30 nM.

As for `Cc1ccc(-n2c(-c3cc4ccccc4oc3=O)n[nH]c2=S)cc1` [Compound 3e, 3-(5-Thioxo-4-p-tolyl-4,5-dihydro-1H-1,2,4-triazol-3-yl)-2H-chromen-2-one], the Ki was 18400 ± 3400 nM in assay [1] (setting [5]), 140 ± 50 nM in assay [2] (setting [6]), 39 ± 2 nM in assay [3] (setting [7]) and 130 ± 10 nM in assay [4] (setting [8]).

For the compound `O=c1oc2ccccc2cc1-c1nnc(Nc2ccc(Cl)cc2)s1` [Compound 4c, 3-(5-(4-Chlorophenylamino)-1,3,4-thiadiazol-2-yl)-2H-chromen-2-one], the Ki in assay [1] (setting [5]) was 48600 ± 4400 nM; in assay [2] (setting [6]), 350 ± 10 nM; in assay [3] (setting [7]) it was 240 ± 21 nM; in assay [4] (setting [8]), 420 ± 10 nM.

As to `Cc1cccc(Nc2nnc(-c3cc4ccccc4oc3=O)s2)c1` [Compound 4d, 3-(5-(m-Toluidino)-1,3,4-thiadiazol-2-yl)-2H-chromen-2-one], the Ki was 28000 ± 1630 nM in assay [1] (setting [5]), 510 ± 10 nM in assay [2] (setting [6]), 17 ± 2 nM in assay [3] (setting [7]) and 660 ± 10 nM in assay [4] (setting [8]).

Turning to `O=c1oc2ccccc2cc1-c1n[nH]c(=S)n1-c1cccc(Cl)c1` [Compound 3b, 3-(4-(3-Chlorophenyl)-5-thioxo-4,5-dihydro-1H-1,2,4-triazol-3-yl)-2H-chromen-2-one], the Ki was 320 ± 70 nM in assay [1] (setting [5]), 65700 ± 2000 nM in assay [2] (setting [6]), 600 ± 30 nM in assay [3] (setting [7]) and 36 ± 3 nM in assay [4] (setting [8]). Also, in assay [4] (ratio of Ki values versus neostigmine), the “fold more active on hBChE than neostigmine” value is recorded as 2 fold.

Consider `Cc1cccc(-n2c(-c3cc4ccccc4oc3=O)n[nH]c2=S)c1` [Compound 3d, 3-(5-Thioxo-4-m-tolyl-4,5-dihydro-1H-1,2,4-triazol-3-yl)-2H-chromen-2-one], for which the Ki in assay [1] (setting [5]) was 5770 ± 310 nM; in assay [2] (setting [6]) it was 1110 ± 50 nM; in assay [3] (setting [7]) it was 82 ± 2 nM; in assay [4] (setting [8]), 180 ± 20 nM.

Take `CN(C)C(=O)Oc1cccc([N+](C)(C)C)c1` [Neostigmine, neostigmine methylsulfate, reference compound]: the Ki in assay [1] is 56 ± 6 nM; in assay [2], 47 ± 6 nM; in assay [3], 48 ± 3 nM; in assay [4], 60 ± 5 nM.
